Assays:
Skp1-Cdc4 complex = Skp1-Cdc4 complex (Saccharomyces cerevisiae, UniProt P07834+P52286); assay: Fluorescence polarization inhibition by SCF-I2 of Ash1 peptide binding to Skp1-Cdc4; set-up: species or system yeast; conditions: compared with Ash1^18pT286/pT290 or Ash1^18pT286/pT290/pS294 peptides
From the text: (f) Fluorescence polarization of the fluorescein-labelled Ash1 peptides (circle, pT286/pT290/pS294, square, pT286/pT290, triangle, pT290/pS294, inverted triangle doubly phosphorylated CycE peptide) in the presence of increasing concentrations of the recombinant Skp1-Cdc4 complex (mP, millipolarization unit). (g) Fluorescence polarization of the fluorescein-labelled Ash1 peptides (circle, pT286/pT290/pS294, square, pT286/pT290, triangle, pT290/pS294, inverted triangle, doubly phosphorylated CycE peptide) in the presence of increasing concentrations of the SCF-I2 inhibitor.
Fluorescence polarization assays containing 0.21 μM Skp1-Cdc4 complex and 10 nM fluorescently labelled cyclin E-derived or Ash1-derived phosphopeptides in 10 mM HEPES (pH 7.5), 40 mM NaCl, 0.1 mg ml^−1 BSA and 1 mM DTT in a final volume of 23.5 μl per well were performed on an Analyst HT plate reader (Molecular Devices Corp., Sunnyvale CA).

Cdc4-Skp1 = conditions: read-out: Ki value for SCF-I2-Cdc4-Skp1 by fluorescence polarization competition assay; cited from earlier work
Cdc4^WD40 [1] = biological target: T1, Cdc4^WD40 (Saccharomyces cerevisiae, UniProt P07834); conditions: compared to a singly phosphorylated high-affinity CPD of similar affinity for Cdc4; cited from earlier work
T1 sequence (P07834 367-744): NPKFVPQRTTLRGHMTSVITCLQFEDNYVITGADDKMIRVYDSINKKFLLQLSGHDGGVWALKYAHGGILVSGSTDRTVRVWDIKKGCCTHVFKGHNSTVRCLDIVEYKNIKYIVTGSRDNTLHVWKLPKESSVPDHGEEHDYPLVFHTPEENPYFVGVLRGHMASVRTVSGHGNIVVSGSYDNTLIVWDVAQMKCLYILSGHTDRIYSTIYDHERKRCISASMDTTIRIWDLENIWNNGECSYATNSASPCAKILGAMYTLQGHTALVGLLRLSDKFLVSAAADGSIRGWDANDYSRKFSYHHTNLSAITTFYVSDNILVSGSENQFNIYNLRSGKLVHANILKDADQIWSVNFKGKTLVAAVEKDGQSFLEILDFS
From the text: The phenomenon of allostery, whereby ligand binding at one site alters interactions at a physically distant site, allows for complex control of protein function. […] SCF-I2 elicits this allosteric effect through structural changes that occlude the P−2 region of the CPD pocket.

Cdc4^WD40 [2] = biological target: T1, Cdc4^WD40; assay: Isothermal titration calorimetry (ITC) with Cdc4^WD40; set-up: species or system yeast; conditions: 20 °C, cell 30 μM Cdc4^WD40, syringe 100 μM pSic1 or 200 μM SCF-I2, 50 mM Na2HPO4 pH 7.2, 150 mM NaCl, 2 mM β-mercaptoethanol, single-site model, repeated twice, read-out: Kd value for binding Cdc4^WD40 (ITC)
From the text: We determined the effects of substrate binding on the isolated WD40 domain of Cdc4 (Cdc4^WD40), which is more amenable to NMR due to its size (40 kDa) than the minimal Cdc4-Skp1 complex (∼70 kDa). The N-terminal targeting region of Sic1 (residues 1-90, called Sic1^1-90), which contains 7 of the 9 Sic1 CPD sites and is sufficient for Cdc4 binding, was phosphorylated to completion by Cln2-Cdc28-Cks1 kinase (called pSic1). We used isothermal titration calorimetry (ITC) to determine the affinity of Cdc4^WD40 for pSic1 and SCF-I2 (Supplementary Fig. 1a–c). […] The Kd value for SCF-I2 binding Cdc4^WD40 was 0.6±0.02 μM, concordant with the ∼2 μM Ki value determined for SCF-I2-Cdc4-Skp1 by a fluorescence polarization competition assay.
ITC experiments were performed using VP-ITC and iTC200 microcalorimeters (MicroCal Inc., Northampton, MA) at 20 °C with the sample cell containing 30 μM Cdc4^WD40 and the syringe loaded with 100 μM pSic1 or 200 μM SCF-I2. The samples were dialysed in buffer containing 50 mM Na2HPO4, pH 7.2, 150 mM NaCl, 2 mM β-mercaptoethanol. Runs were performed using 13–20 injections at an interval of 120 s and each binding experiment was repeated twice. Using the Origin software provided by MicroCal Inc., heat associated with each injection was integrated and thermodynamic parameters were extracted by fitting the data to a single-site binding model.

Chain of Skp1-Cdc4 complex (P07834 whole entry): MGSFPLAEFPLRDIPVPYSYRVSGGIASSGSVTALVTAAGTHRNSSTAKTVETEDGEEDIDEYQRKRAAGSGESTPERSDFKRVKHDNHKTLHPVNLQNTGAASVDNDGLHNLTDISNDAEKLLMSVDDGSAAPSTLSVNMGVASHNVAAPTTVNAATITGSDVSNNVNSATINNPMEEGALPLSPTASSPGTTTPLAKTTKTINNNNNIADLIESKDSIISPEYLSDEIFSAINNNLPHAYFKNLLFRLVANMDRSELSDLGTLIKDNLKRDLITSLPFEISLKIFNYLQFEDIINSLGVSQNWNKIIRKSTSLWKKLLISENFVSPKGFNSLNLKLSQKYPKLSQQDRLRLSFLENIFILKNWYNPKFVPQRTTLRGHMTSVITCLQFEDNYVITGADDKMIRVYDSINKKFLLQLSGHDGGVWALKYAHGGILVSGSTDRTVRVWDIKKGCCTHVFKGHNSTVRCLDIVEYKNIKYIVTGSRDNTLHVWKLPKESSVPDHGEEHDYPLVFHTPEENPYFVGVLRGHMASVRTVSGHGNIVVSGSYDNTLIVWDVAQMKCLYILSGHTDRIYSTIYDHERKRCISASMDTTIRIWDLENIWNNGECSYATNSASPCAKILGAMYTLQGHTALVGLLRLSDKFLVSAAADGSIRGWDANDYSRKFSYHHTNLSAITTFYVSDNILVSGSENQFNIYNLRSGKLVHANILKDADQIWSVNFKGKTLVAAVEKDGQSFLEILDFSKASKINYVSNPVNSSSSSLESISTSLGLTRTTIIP
Chain of Skp1-Cdc4 complex (P52286 whole entry partner): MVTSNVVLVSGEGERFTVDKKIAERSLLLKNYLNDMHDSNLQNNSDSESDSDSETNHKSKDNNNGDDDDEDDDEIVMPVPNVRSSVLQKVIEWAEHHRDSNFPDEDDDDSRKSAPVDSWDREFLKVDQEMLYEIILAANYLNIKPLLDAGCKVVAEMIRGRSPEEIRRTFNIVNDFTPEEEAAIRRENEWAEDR

O=C(O)c1ccc2ccccc2c1-c1c(C(=O)O)ccc2ccccc12 [SCF-I2]
fold higher potency of SCF-I2 for inhibiting Ash1^18pT290/pS294 binding (Skp1-Cdc4 complex): 10 fold
Ki (Cdc4-Skp1): ~2000 nM
fold lower potency of SCF-I2 towards full-length Sic1 (Cdc4^WD40 [1]): 10 fold
Kd (Cdc4^WD40 [2]): 600 ± 20 nM

From paper PMC5216119, “An allosteric conduit facilitates dynamic multisite substrate recognition by the SCF^Cdc4 ubiquitin ligase” (Nature Communications, 2017)
